What is called IC50 is the concentration that inhibits the measured activity by half. In general, EC50 refers to the midpoint of the concentration-response curve.

Assay [1] deals with T1, PPARγ (Homo sapiens, UniProt P37231).
T1 construct: made in house; host or cells: baculovirus expression system
In words: Competitive displacement binding assay (SPA), PPARγ. Particulars: PPARγ/RXRα. As for the experimental part: Binding assays are performed using scintillation proximity assay (SPA) technology, PPAR receptors, and corresponding radiolabeled ligands. PPARα and PPARγ along with their heterodimeric partner, retinoid X receptor α, are each produced using a baculovirus expression system. Biotinylated oligonucleotides containing PPAR response elements (PPREs) are used to couple the corresponding receptor dimers to yttrium silicate streptavidin-coated SPA beads. PPARγ- and PPARα-specific ligands are labeled with tritium and used in the appropriate corresponding assays. The IC50 values (compound concentration which causes 50% inhibition) for each competing compound are calculated after deduction of non-specific binding (measured in the presence of 10 μM unlabeled ligand). Compounds are evaluated using an 11-point dose response curve with concentrations ranging from 0.169 nM to 10 μM. Reported values represent means from one to seven separate experiments.

Assay [2] deals with T2, PPARα (Homo sapiens, UniProt Q07869).
T2 construct: For PPARα, a GAL4 chimeric system is the standard CTF assay performed
T2 sequence (Q07869 200-468 limits assumed): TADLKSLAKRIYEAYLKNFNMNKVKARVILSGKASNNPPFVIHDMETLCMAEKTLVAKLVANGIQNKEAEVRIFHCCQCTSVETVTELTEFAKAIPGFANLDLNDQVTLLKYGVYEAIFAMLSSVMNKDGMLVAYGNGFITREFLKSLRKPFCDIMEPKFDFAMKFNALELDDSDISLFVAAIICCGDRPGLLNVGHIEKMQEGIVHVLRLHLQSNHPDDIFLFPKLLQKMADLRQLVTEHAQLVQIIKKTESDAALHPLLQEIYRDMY
In words: Cotransfection (CTF) assay, PPARα GAL4 chimeric system in CV-1 cells. It counts as cell-based. Particulars: for Eff (α): relative to reference molecule. The source says:
PPARγ or PPARα are constitutively expressed using plasmids containing the cytomegalovirus promoter. Reporter plasmids for the PPARγ CTF assays contain PPREs from the following genes: acyl coA oxidase (AOX); apolipoprotein A1 (ApoA1); lipoprotein lipase (LPL); or enoyl-CoA hydratase/3-hydroxyacyl-CoA dehydrogenase (HD) plus the thymidine kinase (TK) promoter upstream of the luciferase reporter cDNA. A PPARγ […] galactosidase (GAL4) chimeric system is also used. For PPARα, a GAL4 chimeric system is the standard CTF assay performed. All assays are done in CV-1 cells. Compounds are tested in full log dilution, from 0.1 nM to 10 μM in duplicate. Percent efficacies are determined relative to reference molecules with the efficacy value reflecting the greatest amount of agonist activity achieved in the CTF assay for each compound. Median effective concentration (EC50) values are determined by computer fit to a concentration-response curve. An EC50 value is not calculated if the efficacy for the compound is <20%. Reported values represent means from two to nine separate experiments.

Assay [3] addresses T3, PPARγ ligand binding domain / CREB-binding protein (CBP) (Homo sapiens, UniProt P37231).
T3 construct: expressed in transfected cells; host or cells: CV-1 cells
Nature of the assay: Co-factor recruitment assay (mammalian-2-hybrid, CV-1 cells), CBP. It is filed as cell-based. The following applies: for CBP Eff: relative to a PPARγ full agonist. From the text: (§1) A mammalian-2-hybrid assay system in CTF format is done in CV-1 cells. The following plasmids are used: a mammalian expression vector encoding a fusion of the GAL4 DNA binding domain with the PPARγ ligand binding domain; a mammalian expression vector encoding a fusion of the VP16 transactivation domain with the nuclear receptor interaction domain of the respective co-activators: CREB-binding protein (CBP), peroxisome proliferator-activated receptor gamma coactivator-1 (PGC-1), activating signal cointegrator-2 (ASC-2), thyroid hormone receptor-activated protein complex (TRAP220), and the peptide C33; and a reporter plasmid (multimerized GAL4 binding sites/minimal TK promoter driving a luciferase cDNA). Cells are transfected in batch format and treated with compound (full log dilution from 0.1 nM to 10 μM) or vehicle for 24 hours. Subsequently, the cells are lysed and luciferase activity is measured. Luciferase activity serves as the endpoint for interaction between co-activator and receptor. The data are presented as % efficacy relative to a PPARγ full agonist and represent means from four to six separate experiments.

The target in assay [4] is T4, PPARγ ligand binding domain / PGC-1 (Homo sapiens, UniProt P37231).
T4 construct: expressed in transfected cells; host or cells: CV-1 cells
T4 sequence (P37231 238-503 limits assumed): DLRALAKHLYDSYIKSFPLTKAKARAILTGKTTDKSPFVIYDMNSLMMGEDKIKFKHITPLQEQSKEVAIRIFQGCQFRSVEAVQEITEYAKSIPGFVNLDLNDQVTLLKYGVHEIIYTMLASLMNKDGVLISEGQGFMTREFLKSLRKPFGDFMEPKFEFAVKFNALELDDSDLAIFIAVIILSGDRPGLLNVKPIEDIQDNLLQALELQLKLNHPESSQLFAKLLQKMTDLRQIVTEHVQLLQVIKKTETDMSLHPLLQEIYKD
T4 sequence (Q9UBK2 1-798 partner): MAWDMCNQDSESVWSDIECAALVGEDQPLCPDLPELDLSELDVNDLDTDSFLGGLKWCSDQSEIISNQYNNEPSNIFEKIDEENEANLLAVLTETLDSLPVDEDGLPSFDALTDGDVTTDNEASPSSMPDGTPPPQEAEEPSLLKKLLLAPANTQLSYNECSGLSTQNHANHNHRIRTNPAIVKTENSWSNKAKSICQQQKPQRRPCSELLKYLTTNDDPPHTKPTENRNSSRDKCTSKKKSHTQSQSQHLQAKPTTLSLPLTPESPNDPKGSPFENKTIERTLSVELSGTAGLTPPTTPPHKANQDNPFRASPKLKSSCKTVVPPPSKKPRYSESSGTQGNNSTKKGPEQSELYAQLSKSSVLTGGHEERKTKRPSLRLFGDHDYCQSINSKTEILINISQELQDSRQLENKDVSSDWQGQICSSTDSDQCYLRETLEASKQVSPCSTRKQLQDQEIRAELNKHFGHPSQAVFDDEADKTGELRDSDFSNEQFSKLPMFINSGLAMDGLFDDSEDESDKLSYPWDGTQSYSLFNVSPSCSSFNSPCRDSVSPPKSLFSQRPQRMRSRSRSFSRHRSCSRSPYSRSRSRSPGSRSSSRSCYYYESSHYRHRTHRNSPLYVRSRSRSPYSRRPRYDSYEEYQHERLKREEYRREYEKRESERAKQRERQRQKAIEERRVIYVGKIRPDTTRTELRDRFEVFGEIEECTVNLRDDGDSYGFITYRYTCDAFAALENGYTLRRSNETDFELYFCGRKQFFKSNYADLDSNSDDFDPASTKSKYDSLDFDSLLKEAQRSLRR
In words: Co-factor recruitment assay (mammalian-2-hybrid, CV-1 cells), PGC-1. It counts as cell-based. The following applies: for EC50: read-out: PGC1 EC50; for PGC1 Eff: relative to a PPARγ full agonist.
Text: as §1

T3 sequence (Q92793 whole entry partner, species assumed, one chain of several, the tested form may be a part): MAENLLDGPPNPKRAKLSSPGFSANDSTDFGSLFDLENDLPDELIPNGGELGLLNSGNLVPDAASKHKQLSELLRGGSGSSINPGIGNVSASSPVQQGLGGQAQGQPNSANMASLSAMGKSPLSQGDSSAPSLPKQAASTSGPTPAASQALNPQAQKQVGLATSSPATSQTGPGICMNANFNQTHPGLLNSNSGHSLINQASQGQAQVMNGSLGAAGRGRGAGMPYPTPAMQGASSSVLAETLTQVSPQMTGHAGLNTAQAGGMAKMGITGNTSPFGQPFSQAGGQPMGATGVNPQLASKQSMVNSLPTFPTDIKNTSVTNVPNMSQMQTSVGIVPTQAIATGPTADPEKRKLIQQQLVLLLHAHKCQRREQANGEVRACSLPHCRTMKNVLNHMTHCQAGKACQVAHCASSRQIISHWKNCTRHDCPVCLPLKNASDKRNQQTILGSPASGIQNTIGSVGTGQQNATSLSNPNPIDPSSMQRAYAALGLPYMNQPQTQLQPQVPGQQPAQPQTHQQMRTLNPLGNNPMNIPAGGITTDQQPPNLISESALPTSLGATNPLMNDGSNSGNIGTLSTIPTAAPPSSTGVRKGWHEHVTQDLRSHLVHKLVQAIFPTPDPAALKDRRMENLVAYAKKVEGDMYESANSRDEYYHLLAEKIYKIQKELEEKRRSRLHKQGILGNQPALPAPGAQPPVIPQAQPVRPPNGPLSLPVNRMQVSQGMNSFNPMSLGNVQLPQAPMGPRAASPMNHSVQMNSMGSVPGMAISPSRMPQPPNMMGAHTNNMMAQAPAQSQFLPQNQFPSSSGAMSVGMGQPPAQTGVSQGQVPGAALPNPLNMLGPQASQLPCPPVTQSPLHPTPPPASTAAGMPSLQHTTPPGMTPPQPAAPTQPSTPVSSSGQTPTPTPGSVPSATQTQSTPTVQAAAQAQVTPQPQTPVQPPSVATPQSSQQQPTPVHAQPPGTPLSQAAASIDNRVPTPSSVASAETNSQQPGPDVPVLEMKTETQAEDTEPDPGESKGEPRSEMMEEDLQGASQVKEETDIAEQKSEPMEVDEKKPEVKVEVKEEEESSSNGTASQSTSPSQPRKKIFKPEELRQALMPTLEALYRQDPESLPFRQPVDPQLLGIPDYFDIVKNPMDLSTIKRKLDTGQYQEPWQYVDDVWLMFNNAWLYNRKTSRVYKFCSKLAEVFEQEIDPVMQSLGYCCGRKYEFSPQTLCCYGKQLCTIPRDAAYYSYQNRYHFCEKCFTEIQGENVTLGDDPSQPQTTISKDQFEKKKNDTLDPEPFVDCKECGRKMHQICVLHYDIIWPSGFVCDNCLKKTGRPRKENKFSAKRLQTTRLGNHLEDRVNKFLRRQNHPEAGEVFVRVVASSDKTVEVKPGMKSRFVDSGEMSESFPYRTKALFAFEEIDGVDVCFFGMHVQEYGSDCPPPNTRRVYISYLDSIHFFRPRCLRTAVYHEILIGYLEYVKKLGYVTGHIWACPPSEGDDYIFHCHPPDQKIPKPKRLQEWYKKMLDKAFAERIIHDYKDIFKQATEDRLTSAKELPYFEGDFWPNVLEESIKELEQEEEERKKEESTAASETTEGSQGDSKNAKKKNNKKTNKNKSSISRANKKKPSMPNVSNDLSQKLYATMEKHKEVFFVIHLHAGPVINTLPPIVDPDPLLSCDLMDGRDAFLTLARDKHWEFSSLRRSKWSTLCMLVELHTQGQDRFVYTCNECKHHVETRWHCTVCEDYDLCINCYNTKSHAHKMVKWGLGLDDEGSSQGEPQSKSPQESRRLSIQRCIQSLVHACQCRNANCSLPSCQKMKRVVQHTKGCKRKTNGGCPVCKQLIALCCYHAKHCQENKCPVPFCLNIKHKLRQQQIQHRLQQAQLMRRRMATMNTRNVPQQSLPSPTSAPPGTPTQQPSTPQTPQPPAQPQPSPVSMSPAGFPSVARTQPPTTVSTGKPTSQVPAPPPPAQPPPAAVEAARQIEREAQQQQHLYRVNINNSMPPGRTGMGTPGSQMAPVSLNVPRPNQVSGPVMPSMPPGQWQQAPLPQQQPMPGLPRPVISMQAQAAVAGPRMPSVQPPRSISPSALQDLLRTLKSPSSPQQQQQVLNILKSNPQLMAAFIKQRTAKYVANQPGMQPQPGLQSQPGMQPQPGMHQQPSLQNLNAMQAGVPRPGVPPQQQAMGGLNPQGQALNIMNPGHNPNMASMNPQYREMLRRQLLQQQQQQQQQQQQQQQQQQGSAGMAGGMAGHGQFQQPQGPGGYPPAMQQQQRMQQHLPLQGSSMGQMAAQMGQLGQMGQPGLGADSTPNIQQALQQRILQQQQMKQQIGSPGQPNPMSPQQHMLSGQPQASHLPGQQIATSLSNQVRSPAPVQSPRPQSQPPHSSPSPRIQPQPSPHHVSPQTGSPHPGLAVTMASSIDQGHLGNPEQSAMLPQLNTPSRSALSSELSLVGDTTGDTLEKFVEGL
T1 sequence (P37231 whole entry): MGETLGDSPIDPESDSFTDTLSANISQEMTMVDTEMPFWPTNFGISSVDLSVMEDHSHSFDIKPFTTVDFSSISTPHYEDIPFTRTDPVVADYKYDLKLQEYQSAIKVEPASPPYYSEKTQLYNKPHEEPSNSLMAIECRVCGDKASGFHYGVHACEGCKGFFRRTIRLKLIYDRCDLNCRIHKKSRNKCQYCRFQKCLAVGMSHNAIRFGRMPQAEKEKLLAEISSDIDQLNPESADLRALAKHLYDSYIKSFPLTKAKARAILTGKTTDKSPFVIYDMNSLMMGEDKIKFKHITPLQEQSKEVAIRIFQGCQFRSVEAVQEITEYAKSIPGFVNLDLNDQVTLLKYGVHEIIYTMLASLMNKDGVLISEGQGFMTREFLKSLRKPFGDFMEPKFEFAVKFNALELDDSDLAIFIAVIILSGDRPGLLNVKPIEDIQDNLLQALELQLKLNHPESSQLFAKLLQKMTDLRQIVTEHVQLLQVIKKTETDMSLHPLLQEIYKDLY
T1 sequence (P19793 whole entry, further chain): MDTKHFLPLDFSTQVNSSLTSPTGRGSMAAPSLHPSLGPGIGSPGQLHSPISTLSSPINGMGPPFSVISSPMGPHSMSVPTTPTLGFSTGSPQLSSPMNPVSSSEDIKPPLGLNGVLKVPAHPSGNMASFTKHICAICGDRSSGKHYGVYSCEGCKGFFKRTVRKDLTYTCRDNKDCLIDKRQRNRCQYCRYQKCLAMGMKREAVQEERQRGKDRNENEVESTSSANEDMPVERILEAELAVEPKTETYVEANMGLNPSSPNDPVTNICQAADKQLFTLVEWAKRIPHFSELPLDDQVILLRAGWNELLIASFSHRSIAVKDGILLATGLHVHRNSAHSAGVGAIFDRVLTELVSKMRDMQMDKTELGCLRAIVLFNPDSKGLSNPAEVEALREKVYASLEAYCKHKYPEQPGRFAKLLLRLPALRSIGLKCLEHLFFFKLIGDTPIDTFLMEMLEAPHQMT

Consider `COc1ccc(CCNC(=O)COc2ccc(C[C@H](OC)C(=O)O)cc2)cc1` [formula III, (2S)-3-(4-{[2-(4-methoxy-phenyl)-ethylcarbamoyl]-methoxy}-phenyl)-2-methoxy-propionic acid], for which the IC50 in assay [1] came out at 52 nM. For the same molecule, in assay [2], the midpoint of the response, the EC50, lay at 1300 nM and the “Eff (α)” value is given as 43 % efficacy. Moreover, in assay [3], the EC50 was 1920 nM and the “CBP Eff” value amounted to 15 % efficacy. In assay [4], the EC50 was found to be 2070 nM and the “PGC1 Eff” value was 24 % efficacy.

In turn, `CCOc1ccc(CCNC(=O)COc2ccc(C[C@H](OC)C(=O)O)cc2)cc1` [formula V, (S)-3-(4-{[2-(4-ethoxy-phenyl)-ethylcarbamoyl]-methoxy}-phenyl)-2-methoxy-propionic acid] had a half-maximal inhibitory concentration (IC50) in assay [1] of 30 nM. Moreover, in assay [2], the EC50 is 1810 nM and the “Eff (α)” value is listed as 39 % efficacy. In assay [3], it took 2640 nM to reach a half-maximal effect (EC50) and the “CBP Eff” value is 18 % efficacy. In assay [4], the EC50 came to 2600 nM and the “PGC1 Eff” value amounted to 24 % efficacy.

Source of the values: patent publication US7321056B2, “Selective peroxisome proliferator activated receptor modulators” (Eli Lilly and Company, priority 2003, dated 2008).
